The values below come from patent publication US20090042993A1, “IDENTIFICATION OF NOVEL POST-TRANSLATIONAL PROTEIN MODIFICATIONS” (priority 2007, published 2009).

Structures are written as SMILES. Peptide text beside a SMILES is read from it. * marks the point of attachment. Cbz = O=C(OCc1ccccc1)*

Experiment [1] addresses T1, ER membrane acetyl-CoA transport activity (Cricetulus griseus, UniProt G3H231).
T1 sequence (G3H231 1-550): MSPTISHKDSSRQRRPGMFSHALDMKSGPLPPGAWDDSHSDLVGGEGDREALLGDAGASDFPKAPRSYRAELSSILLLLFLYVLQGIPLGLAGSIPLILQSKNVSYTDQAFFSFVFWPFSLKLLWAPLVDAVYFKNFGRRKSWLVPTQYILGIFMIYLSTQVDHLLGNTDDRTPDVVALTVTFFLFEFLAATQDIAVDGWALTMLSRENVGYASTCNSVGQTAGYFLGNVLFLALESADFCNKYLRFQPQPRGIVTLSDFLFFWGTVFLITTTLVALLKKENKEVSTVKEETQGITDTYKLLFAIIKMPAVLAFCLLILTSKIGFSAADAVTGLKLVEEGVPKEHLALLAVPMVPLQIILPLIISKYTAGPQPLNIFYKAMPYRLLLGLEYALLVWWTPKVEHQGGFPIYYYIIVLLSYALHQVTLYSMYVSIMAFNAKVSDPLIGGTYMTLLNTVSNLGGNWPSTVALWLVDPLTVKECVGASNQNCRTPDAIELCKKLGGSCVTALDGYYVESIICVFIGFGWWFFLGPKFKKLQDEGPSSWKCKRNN
Kind of experiment: Acetyl-CoA transport assay into intact ER vesicles. Format: biochemical, Chinese Hamster. The note with it: ER vesicles, increasing concentrations of Coenzyme A.

For experiment [2], the system named is BACE1. The experiment can be described thus: BACE1 steady-state levels by Western blot in stably transfected CHO cells. Format: cell-based, human. The note with it: CHO cells, proteasome inhibitor for 10 hours (MG-132 5 μM, lactacystin 10 μM). How it is done:
Chinese Hamster Ovary (CHO) cells were grown in DMEM (Gibco BRL—Invitrogen, Carlsbad, Calif.) supplemented with 10% fetal bovine serum (FBS) and penicillin/streptomycin (Mediatech, Inc., Herndon, Va.) as described before (Puglielli et al., 2001, Nat. Cell Biol. 3: 905-912; Puglielli et al., 2003, J. Biol. Chem. 278: 19777-19783; Costantini et al., 2005, Biochem. J. 391: 59-67; Costantini et al., 2006, EMBO J. 25: 1997-2006). Cells were maintained in a humidified atmosphere with 5% CO2. For ceramide treatment, C6-ceramide (also simply called ceramide herein) was administered at the final concentration of 10 μM; treatment was started when cells were ˜30% confluent and carried out for 4 days, unless specified otherwise. Treatment with proteasome inhibitors MG-132 (5 μM) and lactacystin (10 μM) was done for 10 hours, as described earlier (Qing et al., 2004, FASEB J. 18: 1571-1573).
Cell lysates were prepared in GTIP buffer (100 mM Tris-pH 7.6, 20 mM EDTA, 1.5 M NaCl) with 1% Triton X-100 (Roche, Basel, Switzerland), 0.25% NP40 (Roche), and a protease inhibitor cocktail (Roche) as described before (Puglielli et al., 2003, J. Biol. Chem. 278: 19777-19783; Costantini et al., 2005, Biochem. J. 391: 59-67). Briefly, cell monolayers were washed twice in PBS, scraped, transferred into eppendorf tubes, and centrifuged at 8,000 rpm for 5 min in a table-top centrifuge. Cell pellets were then lysed in ice for 30 min with the buffer indicated above, and centrifuged again at 14,000 rpm prior to the recollection of the protein extracts. Proteins were quantitated with the BCA Protein Assay (Pierce, Rockford, Ill.) following the manufacturer's instructions.
For the immunoprecipitation of BACE1, cell lysates were pre-cleared with BioMag Protein A (Polysciences, Inc., Warrington, Pa.); beads were used at the concentration of 15 μl of the slurry per sample and separated with a magnetic holder. BACE1 was then immunoprecipitated with anti-BACE1 antibodies overnight and recovered with BioMag Protein A as above. The immunoprecipitate-bead complexes were washed 3 times in PBS and boiled for 10 min in SDS sample buffer (Invitrogen) with β-mercaptoethanol. Beads were then separated and the samples were analyzed by reducing SDS-PAGE.
Western blotting was performed on 10% Bis-Tris, 4-12% Bis-Tris, or 7% Tris-Acetate SDS-PAGE systems (NuPAGE; Invitrogen) as described (Puglielli et al., 2001, Nat. Cell Biol. 3: 905-912; Puglielli et al., 2003, J. Biol. Chem. 278: 19777-19783; Costantini et al., 2005, Biochem. J. 391: 59-67; Costantini et al., 2006, EMBO J. 25: 1997-2006). The following antibodies were used: anti-BACE1 N-terminal (monoclonal antibody; R&D Systems, Minneapolis, Minn.); anti-BACE1 C-terminal (polyclonal antibody; Abcam, Cambridge, Mass.); anti-pro-BACE1 (polyclonal; Abcam); anti-acetylated lysine (monoclonal; Abcam); anti-calreticulin (ER marker, polyclonal; Abcam); anti-58 K Golgi/formiminotransferase cyclodeaminase (Golgi marker, polyclonal; Abcam); anti-syntaxin (Golgi marker, monoclonal; Abcam); anti-EEA1 (endosomes, monoclonal; BD Transduction Laboratories, Lexington, Ky.); anti-actin (polyclonal; Cell Signaling, Danvers, Mass.). Secondary antibodies (Amersham) were used at a 1:6000 dilution. Binding was detected by chemiluminescence (LumiGLO kit; KPL, Gaithersburg, Md.). Only a representative blot of at least three different experiments is shown throughout the paper.
FIG. 1 illustrates how BACE1 is transiently acetylated in the lumen of the ER. For this experiment, CHO cells expressing human BACE1 were treated with C6-ceramide (also simply called ceramide herein) for different periods of time. BACE1 was then immunoprecipitated and analyzed by Western blotting. FIG. 1(A): CHO cells stably expressing BACE1 were treated with ceramide for the indicated time. BACE1 was immunoprecipitated from total cell lysates, separated on a 7% Tris-Acetate NuPAGE system, and then analyzed by Western blot using either anti-BACE1 or anti-acetylated lysine antibodies. […]

`CC(C)(COP(=O)(O)OP(=O)(O)OC[C@H]1O[C@@H](n2cnc3c(N)ncnc32)[C@H](O)[C@@H]1OP(=O)(O)O)[C@@H](O)C(=O)NCCC(=O)NCCS` [Coenzyme A]: the “acetyl-CoA transport across the ER membrane” value in experiment [1] is “inhibited”.

As for `CC(C)C[C@@H](C=O)NC(=O)[C@H](CC(C)C)NC(=O)[C@H](CC(C)C)NC(=O)OCc1ccccc1` [MG-132] (Cbz-Leu-Leu-Leu-aldehyde), in experiment [2], the “steady-state levels of BACE1Ala” value was “not those of BACE1Ala” and the “steady-state levels of BACE1WT” value is on record as “successfully increased”.

As to `CC(=O)N[C@@H](CSC(=O)[C@]1([C@@H](O)C(C)C)NC(=O)[C@H](C)[C@@H]1O)C(=O)O` [lactacystin], in experiment [2], the “steady-state levels of BACE1Ala” value is given as “not those of BACE1Ala” and the “steady-state levels of BACE1WT” value is given as “successfully increased”.
